The results in this text go back to US20130101996A1, “DETECTION METHOD AND APPARATUS OF ACTIVATED NEUTROPHILS” (SYSMEX CORPORATION, priority 2011, published 2013).

Assay type in all cases: cell-based, human
Assay [1] has as its system neutrophils in whole blood. Briefly: Whole blood measured by automated blood cell counter XE-2100, DIFF scattergram of 4DS-SSC. The settings on record: PMA 0.32 nM, room temperature 10 min; whole blood (EDTA-2K). On the procedure:
Peripheral blood is extracted from an able-bodied person by using a blood collection tube containing EDTA-2K for hematologic examination. PMA (manufactured by Sigma-Aldrich Co., LLC.) (final concentration: 0.32 nM) is added to the obtained blood, which is left still at room temperature for 10 min. Whole blood to which PMA is not added is used as a control sample.
The prepared sample is supplied to the automated blood cell counter XE-2100 (manufactured by Sysmex Corporation) for measurement to acquire a DIFF scattergram of 4DS-SSC. The automated blood cell counter XE-2100 automatically treats the sample prepared as described above by using Stromatolyser-4DL and Stromatolyser-4DS (manufactured by Sysmex Corporation) to prepare a measurement sample.

The test system of assay [2] is neutrophils. Briefly: Transmission electron microscope observation of stimulated neutrophils. The settings on record: PMA or fMLP added, fixed by 2.5% glutaraldehyde. On the procedure: A sample containing activated neutrophils is prepared from peripheral blood extracted from an able-bodied person in the same manner as in Example 1. Also, a sample not treated by a stimulating substance is prepared as a control sample.
The samples are fixed by 2.5% glutaraldehyde to prepare electron microscope samples according to the method described in the literature by the inventors (Mari Kono et al. (2009), ‘Morphological definition of CD71 positive reticulocytes by various staining techniques and electron microscopy compared to reticulocytes detected by an automated hematology analyzer’, Clinica Chimica Acta, Vol. 404, p105-110.). The obtained samples are analyzed by using a transmission electron microscope (Hitachi H-7500).

The subject of assay [3] is neutrophils. Briefly: Flow cytometry (FACSCalibur) of stimulated polymorphonucleocytes, 4DS-SSC scattergram. Conditions: PMA 0.32 nM or fMLP 50 nM, room temperature 10 min; versus non-stimulated control. In general terms: A flow cytometer gives signals particle by particle.
Description: Peripheral blood is extracted from an able-bodied person by using a heparin blood collection tube for hematologic examination. A polynuclear sample of purity 90% or more is obtained by centrifugation of the obtained blood using a monopolymer separation solution (Dainippon Sumitomo Pharma Co., Ltd.) at room temperature. This operation is performed according to instructions of the manufacturer (Dainippon Sumitomo Pharma Co., Ltd.). Then, the obtained polymorphonucleocytes (2×10^5) are suspended in a 1 mL of 0.1% bovine serum albumin (phosphate buffered saline). To stain neutrophils of polymorphonucleocytes, CD16 (antihuman CD16 Fc gamma receptor III (clone: DJ130c).mouse monoclonal antibody/neutrophil specific antibody for RPE labeled flow cytometry; Dako) (final concentration: 750 μg/L) fluorescence-labeled by phycoerythrin (PE) is added to the obtained suspension for incubation at room temperature for 10 min. Next, APF (Aminophenyl Fluorescein, Sekisui Medical Co., Ltd.) (final concentration: 10 μM) as a reagent for ROS detection is added to the suspension, which is left still at room temperature for 30 min. […]
In assay [4] the test system is neutrophils. Briefly: Confocal laser microscope observation of APF fluorescence (ROS production) in stimulated neutrophils. Conditions: PMA as stimulating substance, APF 10 μM; confocal laser microscopes. On the procedure: A sample containing activated neutrophils is prepared from peripheral blood extracted from an able-bodied person in the same manner as in Example 1. However, only PMA is used as a stimulating substance of neutrophils. A sample (−APF) not treated by APF and a stimulating substance and a sample (+APF) not treated by a stimulating substance are prepared as control samples.
Each prepared sample is moved to a glass bottom dish coated with poly-L-lysine to observe neutrophils in the sample by confocal laser microscopes (IX81 (manufactured by Olympus Corporation), CSU-X1 (manufactured by Yokogawa Electric Corporation), and ImagEM (manufactured by Hamamatsu Photonics K. K.)).

Regarding `CCCCCCCCCCCCCC(=O)O[C@@H]1[C@@H](C)[C@@]2(O)[C@@H](C=C(CO)C[C@]3(O)C(=O)C(C)=C[C@@H]23)[C@@H]2C(C)(C)[C@]12OC(C)=O` [PMA, Phorbol 12-myristate 13-acetate], the “appearance of activated neutrophils in 4DS-SSC scattergram, whole blood” value in assay [1] is “activated neutrophils appear between a cluster containing neutrophils and a cluster containing eosinophils”. Moreover, in the assay on neutrophils [2], the “changes of form of neutrophils (degranulation, vacuole in cytoplasm)” value was “many neutrophils in which degranulation and vacuole are produced in cytoplasm are observed”. Moreover, the “appearance region of neutrophils in 4DS-SSC scattergram” value in the assay with neutrophils [3] is given as “neutrophils appear on other regions”. The “ROS production capability of neutrophils (APF derived fluorescence)” value in the assay with neutrophils [4] was “enhanced”.
Consider N-Formyl-Met-Leu-Phe [fMLP], for which the “changes of form of neutrophils (degranulation, vacuole in cytoplasm)” value with neutrophils [2] was “many neutrophils in which degranulation and vacuole are produced in cytoplasm are observed”. Further, the “appearance region of neutrophils in 4DS-SSC scattergram” value with neutrophils [3] is recorded as “neutrophils appear on other regions”.
